# Experimental data reported in patent publication US20210008229A1, “TARGETED PHOTOACOUSTIC AGENTS AND USES THEREOF” (McMaster University, priority 2019, published 2021).
# Tests used:
# [1] = test system: sites of high calcium accretion; assay: in vivo photoacoustic imaging of the knee joint (calcium accretion); set-up: species or system Balb/c mice; conditions: for photoacoustic signal in the knee (or shoulder) joints: in vivo, 1 hour post-injection
# Procedure: The white arrows indicate the knee joint and light grey arrows indicate blood vessels.
# Photoacoustic imaging was performed using Vevo LAZR-X (FUJIFILM VisualSonics Inc., Toronto, ON, Canada) Imaging system equipped with a 680-970 nm laser. Mice were anaesthetized with isofluorane and set up on a platform that monitored the respiration rate and the heart rate of the mouse. The hair on the hindlimb was removed while the mouse was anaesthetized. A 30-MHz, linear array ultrasound transducer with integrated fiber optic light delivery (LZ-400 and MX-400, FUJIFILM VisualSonics, Inc.) was positioned laterally overtop the hindlimb knee joint. The integrated fiber bundle delivered 15 to 20 mJ/cm^2 of light to the hindlimb of the mouse.
# There are a number of TCO-derived molecules, including antibodies and small molecules, that are available for use as targeting vectors.^16,17,18,19 For a proof of concept study, compound 5 was combined with a TCO-derived bisphosphonate (TCO-BP (6)). TCO-BP has been used to target radiolabeled tetrazines to sites of high calcium accretion. Conveniently, the compound allows testing to be performed in inexpensive healthy mouse models since tetrazine derivatives coupled to TCO-BP should localize to elbow and knee joints where there is elevated turnover of calcium.^16,20,21 Compound 7 was prepared by mixing compounds 5 and 6 at room temperature for 10 min in quantitative yield; highlighting the ease with which new photoacoustic imaging agents can be prepared using this approach.
# For in vivo studies, a group of Balb/c mice were administered the parent tetrazine 5 and a second group received the bisphosphonate derivative 7.
# [2] = target: T1, bovine serum albumin (BSA) (Bos taurus, UniProt P02769); assay: preliminary albumin binding study (absorbance and emission with BSA); conditions: absorbance and emission of 5 with varying concentrations of BSA
# T1 construct: purchased Sigma-Aldrich
# T1 sequence (P02769 25-607): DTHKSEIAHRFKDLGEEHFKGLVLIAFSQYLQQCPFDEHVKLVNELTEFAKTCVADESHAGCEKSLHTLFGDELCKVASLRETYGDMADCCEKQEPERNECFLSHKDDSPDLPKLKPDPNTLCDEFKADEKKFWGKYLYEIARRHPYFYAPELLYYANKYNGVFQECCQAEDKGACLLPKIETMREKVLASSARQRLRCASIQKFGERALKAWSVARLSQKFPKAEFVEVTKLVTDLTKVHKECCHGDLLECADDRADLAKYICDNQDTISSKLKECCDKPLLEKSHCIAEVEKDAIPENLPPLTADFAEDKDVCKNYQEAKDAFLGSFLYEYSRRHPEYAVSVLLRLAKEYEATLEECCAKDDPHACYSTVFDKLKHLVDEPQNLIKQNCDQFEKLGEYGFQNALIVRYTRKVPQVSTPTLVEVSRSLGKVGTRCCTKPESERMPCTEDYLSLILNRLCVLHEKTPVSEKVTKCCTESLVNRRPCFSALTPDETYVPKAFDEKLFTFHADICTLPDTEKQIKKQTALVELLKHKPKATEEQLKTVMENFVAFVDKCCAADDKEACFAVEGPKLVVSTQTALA
# Procedure: When experiments were performed at high dye concentrations, aggregation completely quenches the fluorescence signal, which can be restored through the addition of albumin.
# [3] = solubility / formulation concentration in 10% ethanol in saline; assay type: physicochemical; conditions: aqueous with cosolvent or surfactant or cyclodextrin, read-out: concentration formulated (soluble)
# Procedure: Prior to developing and testing a targeted derivative, in vivo imaging studies were performed with 5 and 143B human osteosarcoma xenografts. Compound 5 was soluble in 10% ethanol in saline and formulated at a concentration of 5 mg mL^−1, which conveniently is higher than what can be achieved for ICG (1 mg mL^−1). Prior to injection, tumors were imaged in order to separate the signals arising from oxygenated and deoxygenated hemoglobin, and 5, which are shown in red, blue and green respectively in color images of FIG. 8. Following administration of 200 μL of 5 (1 mg), signal arising from 5 was clearly visible in the tumor as early as 1 hour post-injection (FIG. 8, upper right image). Mice were sacrificed and the tumors were imaged ex vivo (FIG. 8, lower left image) where uptake of the dye within the tumor was clearly evident.
# [4] = test system: 143B human osteosarcoma xenografts; assay: in vivo photoacoustic imaging of tumor xenografts; set-up: species or system BALB/c nu/nu mice; conditions: 1 hour post injection versus background before injection; 200 μL of 5 (1 mg)
# Procedure: Red in color images=oxyhemoglobin, Blue in color images=deoxyhemoglobin and Green in color images=the dye-tetrazine conjugate according to an embodiment of the present application. The dashed white lines outline the tumor.
# Female BALB/c […] mice (Charles River Laboratories, Kingston, N.Y.) at 4-6 weeks of age were sterile housed and maintained at 24° C. with a 12 h light/dark cycle and were provided autoclaved food and water ad libitum. All procedures were conducted according to the guidelines of the Committee for Research and Ethical Issues of the International Association for the Study of Pain, and guidelines established by the Canadian Council on Animal Care and the McMaster University Animal Research Ethics Board. Female 10-11 week old BALB/c nu/nu mice (Charles River Laboratories, Kingston, N.Y.) were injected with 2.0×10^6 143 B cells in Matrigel:Dulbecco's phosphate-buffered saline (DPBS) (1:1) subcutaneously into the right flank. Photoacoustic studies were performed 10 days following tumor inoculation.
# Photoacoustic imaging was performed using Vevo LAZR-X (FUJIFILM VisualSonics Inc., Toronto, ON, Canada) Imaging system equipped with a 680-970 nm laser. Mice were anaesthetized with isofluorane and set up on a platform that monitored the respiration rate and the heart rate of the mouse. The hair on the hindlimb was removed while the mouse was anaesthetized. […]
# [5] = stability of 5 in plasma (HPLC); assay type: in vitro ADME; conditions: murine plasma at 37° C.
# Procedure: Compound 5 was prepared from the commercially available dye IR-783, which is known to produce a strong photoacoustic signal, in only two steps. The first step involved the preparation of the IR-783-aldehyde 3 which was done successfully using a Suzuki-Miyaura coupling between 1 and 2 in the presence of Pd(PPh3)4 and Cs2CO3. A significant number of different catalysts, bases and reaction conditions were screened to maximize the yield of 3 (96%). The aldehyde was subsequently coupled to tetrazine 4, prepared using a literature procedure,^14 to form the hydrazone 5. Following characterization by nuclear magnetic resonance (NMR) spectroscopy, high resolution mass spectrometry (HRMS) and high performance liquid chromatography (HPLC), the stability of 5 in plasma was evaluated.
# plasma proteins = assay: plasma binding study; assay type: in vitro ADME; conditions: for Pellet: activity in protein pellet; for Supernatant: activity in supernatant
# Excerpt: FIG. 13 is a plot showing the results of a plasma binding study of TCO-BP labeled with ^99mTc and coupled to a dye-tetrazine conjugate according to an embodiment of the present application. […]
# [6] = biodistribution study (gamma counting of tissues and fluids); assay type: in vivo, BALB/c mice
# Procedure: FIG. 11 is a plot showing biodistribution data for selected fluids and tissues for TCO-BP labeled with ^99mTc and coupled to a dye-tetrazine conjugate according to an embodiment of the present application. Experiments were performed using Balb/c mice (n=3 per time point) and tissues and fluids were collected at 1, 3, 6, and 24 h post administration. Data are expressed as the mean percent injected dose per gram (% ID g−1)±SEM.
# (upper plot) and fluorescence spectra and intensity data for blood samples (n=3 for each time point) following the administration of TCO-BP labeled with ^99mTc and coupled to a dye-tetrazine conjugate according to an embodiment of the present application taken at 1, 3, 6, and 24 h p.i. (lower plot).
# Biodistribution studies were performed using female BALB/c mice (Charles River, Kingston, N.Y.) at the indicated time points. The mice were administered the agents via tail vein injection with the final volume not exceeding 200 μL. A 5 mg/mL solution of compound 9 (see Scheme 2, below) in 10% ethanol in saline was administered at a dose of 20 mg/kg to all mice (approximately 518 kBq of 9). For all studies, at 1, 3, 6, or 24 h post-injection of the labeled compound, the animals were euthanized by cervical dislocation. Fluids, bone (knee and shoulder), and select tissues were collected, weighed, and counted in a PerkinElmer Wizard 1470 automatic gamma counter. Decay correction was used to normalize organ activity measurements to time of dose preparation for data calculations. Data is expressed as percent injected dose per gram tissue or fluid (% ID/g) or percent injected dose per organ (% ID/O).
# Mice were administered 9 (518 kBq) and sacrificed at […] post injection where fluids, bone (knee, shoulder), and other key tissues were collected, weighed, and counted in a gamma counter. The resulting data is shown in FIG. 11 and expressed as percent injected dose per gram of tissue or fluid (% ID g^−1).
# [7] = comparison value for ICG; cited from earlier work
smiles,measurement,setting,value
CC1(C)C(/C=C/C2=C(c3ccc(/C=N/Nc4ccc(C(=O)NCc5ccc(C6=NNC=C7CCC(OC(=O)NCCCC(O)(P(=O)(O)O)P(=O)(O)O)CCCC76)cc5)cn4)cc3)C(=C/C=C3\N(CCCCS(=O)(=O)[O-])c4ccccc4C3(C)C)/CCC2)=[N+](CCCCS(=O)(=O)O)c2ccccc21 (centres unmarked) [Compound 7],"uptake in the leg, images ex vivo",[1]; ex vivo leg after 1 hour post-injection imaging,intense uptake
same,photoacoustic signal in the knee (or shoulder) joints,[1],significant signal
CC1(C)C(/C=C/C2=C(c3ccc(/C=N/Nc4ccc(C(=O)NCc5ccc(-c6nncnn6)cc5)cn4)cc3)C(=C/C=C3\N(CCCCS(=O)(=O)[O-])c4ccccc4C3(C)C)/CCC2)=[N+](CCCCS(=O)(=O)O)c2ccccc21 [Compound 5],albumin binding,[2],dye binding to a hydrophobic binding site of albumin
same,solubility,[3],5000 µg/mL
same,increase in signal intensity in the tumor,[4],2.3 ×
same,reactivity of the tetrazine towards TCO-derivatives after plasma incubation,[5]; 24 h,remained reactive towards trans-cyclooctene (TCO)-derivatives
same,stability in plasma (degradation),[5]; out to 24 h,no signs of degradation
same,photoacoustic signal in the knee (or shoulder) joints,[1],did not show any significant signal
CC1(C)C(/C=C/C2=C(c3ccc(/C=N/Nc4ccc(C(=O)NCc5ccc(C6=NNC=C7CCC(OC(=O)NCCCC8(O)P(=O)(O)[O][Tc]9([OH])([OH])([O]P(=O)(O)C(O)(CCCNC(=O)OC%10CC/C=C/CCC%10)P(=O)(O)[O]9)[O]P8(=O)O)CCCC76)cc5)cn4)cc3)C(=C/C=C3\N(CCCCS(=O)(=O)[O-])c4ccccc4C3(C)C)/CCC2)=[N+](CCCCS(=O)(=O)[O][Na])c2ccccc21 (centres unmarked) [Compound 9],Pellet,plasma proteins; 0 h,32.79
same,Pellet,plasma proteins; 0.5 h,36.10
same,Pellet,plasma proteins; 1 h,47.53
same,Pellet,plasma proteins; 2 h,45.29
same,Pellet,plasma proteins; 3 h,47.72
same,Pellet,plasma proteins; 4 h,46.88
same,Pellet,plasma proteins; 6 h,47.83
same,Supernatant,plasma proteins; 0 h,52.00
same,Supernatant,plasma proteins; 0.5 h,53.44
same,Supernatant,plasma proteins; 1 h,47.27
same,Supernatant,plasma proteins; 2 h,49.35
same,Supernatant,plasma proteins; 3 h,46.82
same,Supernatant,plasma proteins; 4 h,47.42
same,Supernatant,plasma proteins; 6 h,47.46
same,activity in the supernatant,plasma proteins; after 1 hour,50%
same,activity present in the pellet containing the proteins,plasma proteins; after 1 hour,50%
same,blood level relative to [99mTc]Tc-TCO-BP alone,[6]; 1 h,20 ×
same,activity in the blood,[6]; 1 h post injection,over 15 % ID g^−1
same,blood level relative to [99mTc]Tc-TCO-BP alone,[6]; 6 h,187 ×
same,blood half-life,[6]; determined using radioactive counting,3.2 h
"CC1(C)C(/C=C/C=C/C=C/C=C2\N(CCCCS(=O)(=O)O)c3ccc4ccccc4c3C2(C)C)=[N+](CCCCS(=O)(=O)[O-])c2ccc3ccccc3c21 [ICG, indocyanine green]",concentration that can be achieved,[7],1000 µg/mL
